Test results published in patent US20250296959A1, “B7-H3 TARGETING PEPTIDES AND CONSTRUCTS THEREOF” (Mariana Oncology Inc., priority 2024, published 2025).
pKd: −log10 of the molar value. Starred links: 1 amine or outer side, 2 acyl side, 3 side chain; linkers in the order of their positions; H or OH if unused. Positions of bridges follow the written chain, without caps; N, C: chain ends. Non-standard residues stand in square brackets, D forms with d. Residues, ends and D or L forms follow the SMILES beside them. *: point of attachment. Ala(piperidin-4-yl) = O=C([C@H](CC1CCN([*:3])CC1)N[*:1])[*:2]; DOTA = O=C(O)CN1CCN(CC(=O)O)CCN(CC(=O)*)CCN(CC(=O)O)CC1; Trp(5-Cl) = N[C@@H](Cc1c[nH]c2ccc(Cl)cc12)C(=O)O; Trp(5-F) = N[C@@H](Cc1c[nH]c2ccc(F)cc12)C(=O)O; 1Nal = N[C@@H](Cc1cccc2ccccc12)C(=O)O; 4Pal = N[C@@H](Cc1ccncc1)C(=O)O; Cha = N[C@@H](CC1CCCCC1)C(=O)O; Chg = N[C@H](C(=O)O)C1CCCCC1; Tle = CC(C)(C)[C@H](N)C(=O)O; hLeu = CC(C)CC[C@H](N)C(=O)O; αMeP = C[C@@]1(C(=O)O)CCCN1; NMeC = CN[C@@H](CS)C(=O)O; NMeS = CN[C@@H](CO)C(=O)O

Target: T1, human 4lg B7-H3 (Homo sapiens, UniProt Q5ZPR3)
T1 sequence (Q5ZPR3 29-534): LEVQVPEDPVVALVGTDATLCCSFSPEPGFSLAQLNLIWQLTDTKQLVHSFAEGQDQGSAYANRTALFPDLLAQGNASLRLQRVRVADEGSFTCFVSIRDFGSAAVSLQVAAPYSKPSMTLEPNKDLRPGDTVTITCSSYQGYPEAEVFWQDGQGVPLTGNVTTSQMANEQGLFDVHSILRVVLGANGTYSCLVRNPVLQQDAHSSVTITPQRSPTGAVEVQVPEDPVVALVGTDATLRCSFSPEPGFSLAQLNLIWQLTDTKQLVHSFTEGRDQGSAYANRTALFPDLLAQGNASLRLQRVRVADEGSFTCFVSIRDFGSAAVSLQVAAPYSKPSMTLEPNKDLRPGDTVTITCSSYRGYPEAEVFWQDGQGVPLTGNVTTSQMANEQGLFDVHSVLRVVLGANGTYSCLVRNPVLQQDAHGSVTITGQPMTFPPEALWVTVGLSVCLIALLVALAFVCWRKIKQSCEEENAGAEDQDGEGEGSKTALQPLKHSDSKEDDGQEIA
Assay: Affinity determination by surface plasmon resonance (SPR) to 4Ig B7-H3
Details: SPR KD—25° C., 4Ig B7-H3; 25° C. flow cell temperature

## CC(=O)N[C@@H](CCC(C)C)C(=O)N[C@@H](Cc1ccc(O)cc1)C(=O)N[C@H]1CSSC[C@@H](C(=O)N[C@@H](Cc2c[nH]c3ccc(Cl)cc23)C(=O)N[C@@H](Cc2ccccc2)C(=O)N[C@H](C(=O)N[C@H](CCCCNC(=O)CN2CCN(CC(=O)O)CCN(CC(=O)O)CCN(CC(=O)O)CC2)C(N)=O)[C@@H](C)O)NC(=O)[C@H](Cc2ccc(O)cc2)NC(=O)[C@H](C(C)C)NC(=O)[C@H](CC(=O)O)NC(=O)[C@H](Cc2ccc(O)cc2)NC(=O)[C@H](CCCCN)NC(=O)CNC(=O)[C@H](C(C)(C)C)NC1=O [compound 235, Ac-hLeu-Y-C-Tbg-G-K-Y-D-V-Y-C-5ClTrp-F-Thr-dLys(DOTA)-CONH2] (Ac-[hLeu]YC[Tle]GKYDVYC[Trp(5-Cl)]FT[dK](DOTA)-NH2; disulfide 3-11)
  pKd: 8.00 to 9.00

## CC(=O)N[C@@H](CCC(C)C)C(=O)N[C@@H](Cc1ccc(O)cc1)C(=O)N[C@H]1CSSC[C@@H](C(=O)N[C@@H](Cc2c[nH]c3ccc(F)cc23)C(=O)N[C@@H](Cc2ccccc2)C(=O)N(C)[C@@H](CO)C(=O)N[C@H](CCCCNC(=O)CN2CCN(CC(=O)O)CCN(CC(=O)O)CCN(CC(=O)O)CC2)C(N)=O)NC(=O)[C@H](Cc2ccc(O)cc2)NC(=O)[C@H](C(C)C)NC(=O)[C@H](CC(=O)O)NC(=O)[C@H](CC2CCCCC2)NC(=O)[C@H](CC2CCNCC2)NC(=O)CNC(=O)[C@H](C(C)C)NC1=O [compound 236, Ac-hLeu-Y-C-V-G-PipAla-CHA-D-V-Y-C-5FW-F-NMeSer-dLys(DOTA)-CONH2] (Ac-[hLeu]YCVG[Ala(piperidin-4-yl)][Cha]DVYC[Trp(5-F)]F[NMeS][dK](DOTA)-NH2; disulfide 3-11)
  pKd: > 9.00

## CC(=O)N[C@@H](CCC(C)C)C(=O)N[C@@H](Cc1ccc(O)cc1)C(=O)N(C)[C@H]1CSSC[C@@H](C(=O)N[C@@H](Cc2c[nH]c3ccc(F)cc23)C(=O)N[C@@H](Cc2ccccc2)C(=O)N[C@H](C(=O)N[C@H](CCCCNC(=O)CN2CCN(CC(=O)O)CCN(CC(=O)O)CCN(CC(=O)O)CC2)C(N)=O)[C@@H](C)O)NC(=O)[C@H](Cc2ccc(O)cc2)NC(=O)[C@H](C(C)C)NC(=O)[C@H](CC(=O)O)NC(=O)[C@H](Cc2ccc(O)cc2)NC(=O)[C@H](CCCCN)NC(=O)CNC(=O)[C@H](C(C)C)NC1=O [compound 237, Ac-hLeu-Y-NMeCys-V-G-K-Y-D-V-Y-C-5FW-F-Thr-dLys(DOTA)-CONH2] (Ac-[hLeu]Y[NMeC]VGKYDVYC[Trp(5-F)]FT[dK](DOTA)-NH2; disulfide 3-11)
  pKd: 8.00 to 9.00

## CC(=O)N[C@@H](CCC(C)C)C(=O)N[C@@H](Cc1ccc(O)cc1)C(=O)N[C@H]1CSSC[C@@H](C(=O)N[C@@H](Cc2c[nH]c3ccc(F)cc23)C(=O)N[C@@H](Cc2ccccc2)C(=O)N[C@H](C(=O)N[C@H](CCCCNC(=O)CN2CCN(CC(=O)O)CCN(CC(=O)O)CCN(CC(=O)O)CC2)C(N)=O)[C@@H](C)O)NC(=O)[C@H](Cc2ccc(O)cc2)NC(=O)[C@H](C(C)C)NC(=O)[C@H](CC(=O)O)NC(=O)[C@H](Cc2ccncc2)NC(=O)[C@H](CCCCN)NC(=O)CNC(=O)[C@H](C(C)C)NC1=O [compound 240, Ac-hLeu-Y-C-V-G-K-4PyA-D-V-Y-C-5FW-F-Thr-dLys(DOTA)-CONH2] (Ac-[hLeu]YCVGK[4Pal]DVYC[Trp(5-F)]FT[dK](DOTA)-NH2; disulfide 3-11)
  pKd: > 9.00

## CC(=O)N[C@@H](CCC(C)C)C(=O)N[C@@H](Cc1ccc(O)cc1)C(=O)N[C@H]1CSSC[C@@H](C(=O)N[C@@H](Cc2cccc3ccccc23)C(=O)N[C@@H](Cc2ccccc2)C(=O)N(C)[C@@H](CO)C(=O)N[C@H](CCCCNC(=O)CN2CCN(CC(=O)O)CCN(CC(=O)O)CCN(CC(=O)O)CC2)C(N)=O)NC(=O)[C@H](C2CCCCC2)NC(=O)[C@H](C(C)C)NC(=O)[C@H](CC(=O)O)NC(=O)[C@H](Cc2ccncc2)NC(=O)[C@H](CCCCN)NC(=O)CNC(=O)[C@H](C(C)(C)C)NC1=O [compound 243, Ac-hLeu-Y-C-Tbg-G-K-4PyA-D-V-Chg-C-1Nal-F-NMeSer-dLys(DOTA)-CONH2] (Ac-[hLeu]YC[Tle]GK[4Pal]DV[Chg]C[1Nal]F[NMeS][dK](DOTA)-NH2; disulfide 3-11)
  pKd: 7.00 to 8.00

## CC(=O)N[C@@H](CCC(C)C)C(=O)N[C@@H](Cc1ccc(O)cc1)C(=O)N[C@H]1CSSC[C@@H](C(=O)N[C@@H](Cc2cccc3ccccc23)C(=O)N[C@@H](Cc2ccccc2)C(=O)N2CCC[C@H]2C(=O)N[C@H](CCCCNC(=O)CN2CCN(CC(=O)O)CCN(CC(=O)O)CCN(CC(=O)O)CC2)C(N)=O)NC(=O)[C@H](Cc2ccc(O)cc2)NC(=O)[C@H](C(C)C)NC(=O)[C@H](CC(=O)O)NC(=O)[C@H](Cc2ccc(O)cc2)NC(=O)[C@H](CCCCN)NC(=O)CNC(=O)[C@H](C(C)(C)C)NC1=O [compound 244, Ac-hLeu-Y-C-Tbg-G-K-Y-D-V-Y-C-1Nal-F-Pro-dLys(DOTA)-CONH2] (Ac-[hLeu]YC[Tle]GKYDVYC[1Nal]FP[dK](DOTA)-NH2; disulfide 3-11)
  pKd: > 9.00

## CC(=O)N[C@@H](CCC(C)C)C(=O)N[C@@H](Cc1ccc(O)cc1)C(=O)N[C@H]1CSSC[C@@H](C(=O)N[C@@H](Cc2cccc3ccccc23)C(=O)N[C@@H](Cc2ccccc2)C(=O)N2CCC[C@H]2C(=O)N[C@H](CCCCNC(=O)CN2CCN(CC(=O)O)CCN(CC(=O)O)CCN(CC(=O)O)CC2)C(N)=O)NC(=O)[C@H](Cc2ccc(O)cc2)NC(=O)[C@H](C(C)C)NC(=O)[C@H](CC(=O)O)NC(=O)[C@H](Cc2ccc(O)cc2)NC(=O)[C@H](CCCCN)NC(=O)CNC(=O)[C@H](C(C)C)NC1=O [compound 245, Ac-hLeu-Y-C-V-G-K-Y-D-V-Y-C-1Nal-F-Pro-dLys(DOTA)-CONH2] (Ac-[hLeu]YCVGKYDVYC[1Nal]FP[dK](DOTA)-NH2; disulfide 3-11)
  pKd: 8.00 to 9.00

## CC(=O)N[C@@H](CCC(C)C)C(=O)N[C@@H](Cc1ccc(O)cc1)C(=O)N[C@H]1CSSC[C@@H](C(=O)N[C@@H](Cc2cccc3ccccc23)C(=O)N[C@@H](Cc2ccccc2)C(=O)N2CCC[C@@]2(C)C(=O)N[C@H](CCCCNC(=O)CN2CCN(CC(=O)O)CCN(CC(=O)O)CCN(CC(=O)O)CC2)C(N)=O)NC(=O)[C@H](Cc2ccc(O)cc2)NC(=O)[C@H](C(C)C)NC(=O)[C@H](CC(=O)O)NC(=O)[C@H](Cc2ccc(O)cc2)NC(=O)[C@H](CCCCN)NC(=O)CNC(=O)[C@H](C(C)(C)C)NC1=O [compound 246, Ac-hLeu-Y-C-Tbg-G-K-Y-D-V-Y-C-1Nal-F-aMePro-dLys(DOTA)-CONH2] (Ac-[hLeu]YC[Tle]GKYDVYC[1Nal]F[αMeP][dK](DOTA)-NH2; disulfide 3-11)
  pKd: 8.00 to 9.00

## CC(=O)N[C@@H](CCC(C)C)C(=O)N[C@@H](Cc1ccc(O)cc1)C(=O)N[C@H]1CSSC[C@@H](C(=O)N[C@@H](Cc2cccc3ccccc23)C(=O)N[C@@H](Cc2ccccc2)C(=O)N2CCC[C@@]2(C)C(=O)N[C@H](CCCCNC(=O)CN2CCN(CC(=O)O)CCN(CC(=O)O)CCN(CC(=O)O)CC2)C(N)=O)NC(=O)[C@H](Cc2ccc(O)cc2)NC(=O)[C@H](C(C)C)NC(=O)[C@H](CC(=O)O)NC(=O)[C@H](Cc2ccc(O)cc2)NC(=O)[C@H](CCCCN)NC(=O)CNC(=O)[C@H](C(C)C)NC1=O [compound 247, Ac-hLeu-Y-C-V-G-K-Y-D-V-Y-C-1Nal-F-aMePro-dLys(DOTA)-CONH2] (Ac-[hLeu]YCVGKYDVYC[1Nal]F[αMeP][dK](DOTA)-NH2; disulfide 3-11)
  pKd: 8.00 to 9.00
